From patent publication US20150217046A1, “DOSING REGIMENS FOR SUBCUTANEOUSLY INFUSIBLE ACIDIC COMPOSITIONS” (SynAgile Corporation, priority 2012, published 2015)

How the values were obtained:
[1] = Infusion site reactions, intermittent subcutaneous infusion of 100 and 200 mg/mL LDEE pH 3.7 (Example 4); conditions: pH 3.7, intermittent s.c.
Description: Each infusion site was spaced a minimum of 2 inches (5 cm) apart from any other infusion site.

[2] = Infusion site reactions, subcutaneous infusion of 50 mg/mL LDEE pH 3.7 (Example 6); conditions: for # of Infusion Site Reactions/# of Infusion Sites: pH 3.7, 50 mg/mL
Protocol: Over the course of two consecutive days, four 6-12 week old juvenile minipigs weighing about 6-13 kg were each administered 18 subcutaneous infusions of LDEE pharmaceutical compositions at pH 3.7 (LDEE.HCl, pH adjusted with trisodium citrate). […] Intermittent and continuously infused doses of 137.5-140 mg (0.61-0.62 millimoles) were administered over 8 hours, and intermittent doses of 275 mg (1.22 millimoles) were administered over 16 hours (calculated mass of LDEE in its freebase form).
Each infusion site was spaced a minimum of 2 inches (5 cm) apart from any other infusion site. All minipigs received seven doses of oral carbidopa, 25 mg/dose: one dose at 12 hours prior to the infusion on the first day; 3 doses on the first day of infusion; and 3 doses on the second day of infusion.

[3] = Plasma LDEE concentrations after 8 hours of subcutaneous infusion (Example 8); parameters: species or system minipigs; conditions: minipig, in vivo
Protocol: In addition to measuring the LD plasma concentrations as described in Example 6, also the plasma LDEE concentrations were measured.

[4] = Rate of hydrolysis of LD esters in solution; type: physicochemical
Protocol: At a particular temperature and pH, the LDEs formed of LD and of different alcohols are hydrolyzed prior to their infusion at different rates. […] The rate of hydrolysis of LDE salts also depends on the anion, i.e., on the acid forming the LDE salt. LDE is hydrolyzed more rapidly when carboxylate anions and/or carboxylic acids replace the chloride anion or HCl. The rate of hydrolysis of the salt formed of LDEE and acetic acid can be about 3 times faster at about pH 4.5 at about 23° C. than that of LDEE.HCl, the salt formed of LDEE and HCl. The rate of hydrolysis at a particular pH and temperature can therefore depend on the buffering agent, e.g., citric acid and/or citrate anions, becoming faster when their concentration is elevated. Typically, the concentration of the buffering ions, i.e., the combined concentrations of citrates and citric acid, is between about 5 mM and 100 mM, for example between about 10 mM and 50 mM. The rate of hydrolysis can increase, for example, when the buffering citric acid-citrate concentration is increased.
In aqueous LDE salt pharmaceutical compositions, the hydrolysis rates generally decrease as the pH decreases, and the shelf life of the LDE salt consequently increases, unless the pH is about 1.7±0.5 or less. […] In acidic pharmaceutical compositions the amines of the LDEs are protonated, making the LDEs cations. […] The rates of hydrolysis generally increase with temperature, and may at least about double or about triple for each 10° C. increase, correspondingly decreasing upon cooling.

## CCOC(=O)[C@@H](N)Cc1ccc(O)c(O)c1 [LDEE, levodopa ethyl ester]
[1]; 100 mg/mL, 282 mg, 16 hrs, 0 hrs
  # of Infusion Site Reactions/# of Infusion Sites: 0/4
[1]; 100 mg/mL, 282 mg, 16 hrs, 12 hrs
  # of Infusion Site Reactions/# of Infusion Sites: 0/4
[1]; 100 mg/mL, 282 mg, 16 hrs, 24 hrs
  # of Infusion Site Reactions/# of Infusion Sites: 1/4
[1]; 100 mg/mL, 282 mg, 16 hrs, 3 days
  # of Infusion Site Reactions/# of Infusion Sites: 1/4
[1]; 100 mg/mL, 282 mg, 16 hrs, 7 days
  # of Infusion Site Reactions/# of Infusion Sites: 0/4
[1]; 100 mg/mL, 282 mg, 16 hrs, 14 days
  # of Infusion Site Reactions/# of Infusion Sites: 0/4
[1]; 200 mg/mL, 140 mg, 8 hrs, 0 hrs
  # of Infusion Site Reactions/# of Infusion Sites: 0/8
[1]; 200 mg/mL, 140 mg, 8 hrs, 12 hrs
  # of Infusion Site Reactions/# of Infusion Sites: 0/8
[1]; 200 mg/mL, 140 mg, 8 hrs, 24 hrs
  # of Infusion Site Reactions/# of Infusion Sites: 0/8
[1]; 200 mg/mL, 140 mg, 8 hrs, 3 days
  # of Infusion Site Reactions/# of Infusion Sites: 3/8
[1]; 200 mg/mL, 140 mg, 8 hrs, 7 days
  # of Infusion Site Reactions/# of Infusion Sites: 3/8
[1]; 200 mg/mL, 140 mg, 8 hrs, 14 days
  # of Infusion Site Reactions/# of Infusion Sites: 2/8
[1]; 200 mg/mL, 282 mg, 16 hrs, 0 hrs
  # of Infusion Site Reactions/# of Infusion Sites: 0/4
[1]; 200 mg/mL, 282 mg, 16 hrs, 12 hrs
  # of Infusion Site Reactions/# of Infusion Sites: 0/4
[1]; 200 mg/mL, 282 mg, 16 hrs, 24 hrs
  # of Infusion Site Reactions/# of Infusion Sites: 0/4
[1]; 200 mg/mL, 282 mg, 16 hrs, 3 days
  # of Infusion Site Reactions/# of Infusion Sites: 2/4
[1]; 200 mg/mL, 282 mg, 16 hrs, 7 days
  # of Infusion Site Reactions/# of Infusion Sites: 2/4
[1]; 200 mg/mL, 282 mg, 16 hrs, 14 days
  # of Infusion Site Reactions/# of Infusion Sites: 1/4
[1]; 200 mg/mL, 563 mg, 16 hrs, 0 hrs
  # of Infusion Site Reactions/# of Infusion Sites: 0/4
[1]; 200 mg/mL, 563 mg, 16 hrs, 12 hrs
  # of Infusion Site Reactions/# of Infusion Sites: 0/4
[1]; 200 mg/mL, 563 mg, 16 hrs, 24 hrs
  # of Infusion Site Reactions/# of Infusion Sites: 0/4
[1]; 200 mg/mL, 563 mg, 16 hrs, 3 days
  # of Infusion Site Reactions/# of Infusion Sites: 3/4
[1]; 200 mg/mL, 563 mg, 16 hrs, 7 days
  # of Infusion Site Reactions/# of Infusion Sites: 3/4
[1]; 200 mg/mL, 563 mg, 16 hrs, 14 days
  # of Infusion Site Reactions/# of Infusion Sites: 2/4
[2]; 50 mg/mL LDEE pH 3.7, about 0.34 mL per hour per site
  tolerability of infused volume per site: well tolerated
[2]; 137.5 mg, 8 hrs, Intermittent s.c., 0 hrs
  # of Infusion Site Reactions/# of Infusion Sites: 0/8
[2]; 137.5 mg, 8 hrs, Intermittent s.c., 12 hrs
  # of Infusion Site Reactions/# of Infusion Sites: 0/8
[2]; 137.5 mg, 8 hrs, Intermittent s.c., 24 hrs
  # of Infusion Site Reactions/# of Infusion Sites: 0/8
[2]; 137.5 mg, 8 hrs, Intermittent s.c., 3 days
  # of Infusion Site Reactions/# of Infusion Sites: 3/8
[2]; 140 mg, 8 hrs, Continuous s.c., 0 hrs
  # of Infusion Site Reactions/# of Infusion Sites: 0/4
[2]; 140 mg, 8 hrs, Continuous s.c., 12 hrs
  # of Infusion Site Reactions/# of Infusion Sites: 0/4
[2]; 140 mg, 8 hrs, Continuous s.c., 24 hrs
  # of Infusion Site Reactions/# of Infusion Sites: 0/4
[2]; 140 mg, 8 hrs, Continuous s.c., 3 days
  # of Infusion Site Reactions/# of Infusion Sites: 0/4
[2]; 275 mg, 16 hrs, Intermittent s.c., 0 hrs
  # of Infusion Site Reactions/# of Infusion Sites: 0/6
[2]; 275 mg, 16 hrs, Intermittent s.c., 12 hrs
  # of Infusion Site Reactions/# of Infusion Sites: 0/6
[2]; 275 mg, 16 hrs, Intermittent s.c., 24 hrs
  # of Infusion Site Reactions/# of Infusion Sites: 1/6
[2]; 275 mg, 16 hrs, Intermittent s.c., 3 days
  # of Infusion Site Reactions/# of Infusion Sites: 1/6
[3]
  Plasma LDEE, 480 minutes after start of infusion: 6.9 ng/mL
[4]; near pH 7, about 37° C.
  rate of hydrolysis relative to LDME: about four times faster
[4]; neutral pH
  time to hydrolysis: within hours or less
